Source: patent publication US11365188B2, “JAK inhibitors” (priority 2018, dated 2022)
Structures can show the parent of a compound that is named as a salt.

Key:
Format in all cases: biochemical
[1] = biological target: JAK1 (Homo sapiens, UniProt P23458); test: JAK Kinase Assay (JAK1, Caliper EZ Reader, fluoresceinated peptide); details: ATP 76.5 μM; JAK1 10 nM; 120 minutes at room temperature; read-out: JAK1 inhibition
[2] = biological target: JAK2 (Homo sapiens, UniProt O60674); test: JAK2 Assay (Caliper EZ Reader, fluoresceinated peptide); details: ATP 11.4 μM; JAK2 0.25 nM; 15 minutes at room temperature; read-out: JAK2 inhibition
Procedure: JAK2 Assay 384-well plates in the left foot butoxy measured progress. The final assay volume was 25 μL, 250 nL 100× compounds, 10 μL enzyme mix and 15 μL substrate mix (fluoresceinated peptide and ATP) in assay buffer (50 mM HEPES (pH 7.5), 10 mM MgCl2, 0.01% TritonX-100, 0.01% Brij35, 0.5 mM EGTA and 2 mM DTT) prepared as test compound By mixing the JAK2 with substrates and test compounds to start the reaction. The reaction mixture was incubated for 15 minutes at room temperature, then added 30 μL stop buffer for each sample to terminate the reaction with 50 mM EDTA. After termination of the kinase reaction, the proportion of phosphorylated product was determined as a fraction of total peptide substrate using Caliper EZ Reader 1 Inhibition data were calculated by comparison with 100% of the reaction mixture without enzyme inhibition and vehicle-only reaction mixture billion % inhibition compared. The final concentration of reagents in the assays is: ATP, 11.4 μM; JAK2 fluorescent peptide (5-FAM-EEPLYWSFPAKKK-CONH2), 3 μM; JAK2, 0.25 nM; and DMSO, 1%. Dose response curve were generated to determine the concentration required for IC50 of JAK2 activity.

[3] = biological target: T1, JAK3 (Homo sapiens, UniProt P52333); test: JAK3 Assay (Caliper EZ Reader, fluoresceinated peptide); details: ATP 3.5 μM; JAK3 0.5 nM; 30 minutes at room temperature; read-out: JAK3 inhibition
T1 sequence (P52333 1-1124): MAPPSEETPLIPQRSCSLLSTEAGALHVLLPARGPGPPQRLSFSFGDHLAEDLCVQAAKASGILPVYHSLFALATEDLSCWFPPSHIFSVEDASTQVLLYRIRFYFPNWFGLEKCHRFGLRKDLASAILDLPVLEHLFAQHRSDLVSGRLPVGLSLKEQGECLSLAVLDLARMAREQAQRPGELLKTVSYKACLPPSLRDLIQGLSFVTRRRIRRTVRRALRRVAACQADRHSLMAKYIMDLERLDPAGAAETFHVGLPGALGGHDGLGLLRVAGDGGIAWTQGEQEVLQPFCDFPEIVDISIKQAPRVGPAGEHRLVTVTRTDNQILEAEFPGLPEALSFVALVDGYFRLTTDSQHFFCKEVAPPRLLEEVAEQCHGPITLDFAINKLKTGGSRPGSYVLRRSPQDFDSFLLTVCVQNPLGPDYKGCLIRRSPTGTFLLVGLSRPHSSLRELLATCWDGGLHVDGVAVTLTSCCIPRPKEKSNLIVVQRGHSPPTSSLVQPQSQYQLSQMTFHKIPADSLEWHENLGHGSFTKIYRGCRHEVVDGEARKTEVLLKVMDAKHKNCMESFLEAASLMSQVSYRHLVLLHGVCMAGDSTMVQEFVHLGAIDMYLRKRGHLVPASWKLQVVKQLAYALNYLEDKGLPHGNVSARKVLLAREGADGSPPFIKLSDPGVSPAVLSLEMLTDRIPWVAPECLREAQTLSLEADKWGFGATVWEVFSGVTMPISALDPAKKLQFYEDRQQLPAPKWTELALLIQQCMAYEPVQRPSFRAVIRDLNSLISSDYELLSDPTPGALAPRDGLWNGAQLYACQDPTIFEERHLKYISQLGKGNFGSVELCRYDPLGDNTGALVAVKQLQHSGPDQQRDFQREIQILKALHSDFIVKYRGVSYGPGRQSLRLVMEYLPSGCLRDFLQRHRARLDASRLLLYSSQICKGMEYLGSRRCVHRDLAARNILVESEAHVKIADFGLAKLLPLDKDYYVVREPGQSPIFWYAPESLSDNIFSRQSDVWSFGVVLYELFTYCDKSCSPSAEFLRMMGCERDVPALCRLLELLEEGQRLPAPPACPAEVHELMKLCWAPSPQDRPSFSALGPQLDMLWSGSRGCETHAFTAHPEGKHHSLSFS
Procedure: JAK3 Assay 384-well plates in the left foot butoxy measured progress. The final assay volume was 25 μL, 250 nL 100× compounds, 10 μL enzyme mix and 15 μL substrate mix (fluoresceinated peptide and ATP) in assay buffer (50 mM HEPES (pH 7.5), 10 mM MgCl2, 0.01% TritonX-100, 0.01% Brij35, 0.5 mM EGTA and 2 mM DTT) prepared as test compound. By mixing the JAK3 with substrates and test compounds to start the reaction. The reaction mixture was incubated for 30 minutes at room temperature, then added 30 μL stop buffer for each sample to terminate the reaction with 50 mM EDTA. After termination of the kinase reaction, the proportion of phosphorylated product was determined as a fraction of total peptide substrate using Caliper EZ Reader II. Inhibition data were calculated by comparison with 100% of the reaction mixture without enzyme inhibition and vehicle-only reaction mixture billion % inhibition compared. The final concentration of reagents in the assays is: ATP, 3.5 μM; JAK3 fluorescent peptide (5-FAM-EEPLYWSFPAKKK-CONH2), 3 μM; JAK3, 0.5 nM; and DMSO, 1%. Dose response curve were generated to determine the concentration required for IC50 of JAK3 activity.

JAK1, sequence (P23458 whole entry, species assumed): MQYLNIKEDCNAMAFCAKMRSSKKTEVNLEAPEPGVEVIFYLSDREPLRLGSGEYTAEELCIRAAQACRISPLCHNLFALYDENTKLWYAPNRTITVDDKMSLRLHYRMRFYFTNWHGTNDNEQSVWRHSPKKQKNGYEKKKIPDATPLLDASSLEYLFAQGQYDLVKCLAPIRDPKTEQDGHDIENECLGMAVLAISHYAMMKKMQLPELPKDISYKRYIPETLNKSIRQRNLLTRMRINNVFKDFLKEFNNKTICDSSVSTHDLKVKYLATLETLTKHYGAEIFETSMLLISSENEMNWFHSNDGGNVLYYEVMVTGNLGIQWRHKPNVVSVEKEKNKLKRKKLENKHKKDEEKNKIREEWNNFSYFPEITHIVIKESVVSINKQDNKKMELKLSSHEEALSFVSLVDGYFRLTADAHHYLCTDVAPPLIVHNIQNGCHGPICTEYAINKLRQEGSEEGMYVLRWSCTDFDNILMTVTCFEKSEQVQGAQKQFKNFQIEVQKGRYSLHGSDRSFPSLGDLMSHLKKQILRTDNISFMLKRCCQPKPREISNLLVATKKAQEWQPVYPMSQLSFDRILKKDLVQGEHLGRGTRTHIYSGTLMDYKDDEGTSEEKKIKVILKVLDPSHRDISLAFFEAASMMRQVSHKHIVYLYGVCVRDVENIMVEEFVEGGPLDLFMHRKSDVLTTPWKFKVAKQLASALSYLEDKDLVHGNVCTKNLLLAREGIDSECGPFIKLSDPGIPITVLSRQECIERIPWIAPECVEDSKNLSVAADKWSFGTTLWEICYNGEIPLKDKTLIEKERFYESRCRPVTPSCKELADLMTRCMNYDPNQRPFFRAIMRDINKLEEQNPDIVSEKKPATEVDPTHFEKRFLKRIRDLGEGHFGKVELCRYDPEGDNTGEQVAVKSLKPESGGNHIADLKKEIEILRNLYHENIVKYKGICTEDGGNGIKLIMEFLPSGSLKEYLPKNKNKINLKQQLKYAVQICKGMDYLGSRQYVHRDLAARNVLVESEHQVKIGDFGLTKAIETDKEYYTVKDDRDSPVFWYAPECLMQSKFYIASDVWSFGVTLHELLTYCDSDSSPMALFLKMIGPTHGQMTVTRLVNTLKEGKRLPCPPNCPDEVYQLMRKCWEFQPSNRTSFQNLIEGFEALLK
JAK2, sequence (O60674 whole entry, species assumed): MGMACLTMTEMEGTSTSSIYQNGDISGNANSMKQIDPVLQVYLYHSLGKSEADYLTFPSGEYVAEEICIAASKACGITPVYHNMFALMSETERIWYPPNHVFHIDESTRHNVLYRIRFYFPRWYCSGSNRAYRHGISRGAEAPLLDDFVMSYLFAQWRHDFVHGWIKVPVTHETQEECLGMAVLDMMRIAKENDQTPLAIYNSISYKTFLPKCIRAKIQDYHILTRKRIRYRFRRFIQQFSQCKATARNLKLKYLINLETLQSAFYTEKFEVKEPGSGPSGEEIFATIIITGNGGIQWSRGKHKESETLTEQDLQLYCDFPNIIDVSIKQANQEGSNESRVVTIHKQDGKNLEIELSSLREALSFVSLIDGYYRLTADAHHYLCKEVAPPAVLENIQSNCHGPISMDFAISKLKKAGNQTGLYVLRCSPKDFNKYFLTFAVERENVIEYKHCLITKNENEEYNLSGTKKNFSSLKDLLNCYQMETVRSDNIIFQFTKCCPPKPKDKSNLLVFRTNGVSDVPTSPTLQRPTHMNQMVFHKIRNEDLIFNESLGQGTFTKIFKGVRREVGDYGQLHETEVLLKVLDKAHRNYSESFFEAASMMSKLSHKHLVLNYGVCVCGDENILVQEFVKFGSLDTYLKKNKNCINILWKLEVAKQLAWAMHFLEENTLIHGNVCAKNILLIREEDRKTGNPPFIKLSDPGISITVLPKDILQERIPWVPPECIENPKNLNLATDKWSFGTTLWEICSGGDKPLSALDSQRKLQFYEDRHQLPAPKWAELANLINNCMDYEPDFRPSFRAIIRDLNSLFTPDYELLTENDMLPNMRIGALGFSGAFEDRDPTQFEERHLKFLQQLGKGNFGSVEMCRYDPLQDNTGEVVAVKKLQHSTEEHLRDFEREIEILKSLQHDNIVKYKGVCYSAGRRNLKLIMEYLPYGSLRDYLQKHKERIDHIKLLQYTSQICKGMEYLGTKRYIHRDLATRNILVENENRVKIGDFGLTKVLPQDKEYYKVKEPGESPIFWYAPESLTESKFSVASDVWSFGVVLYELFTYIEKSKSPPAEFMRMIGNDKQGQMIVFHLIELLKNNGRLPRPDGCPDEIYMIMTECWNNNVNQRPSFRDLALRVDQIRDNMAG

SMILES	IC50 [1] [µM]	IC50 [2] [µM]	IC50 [3] [µM]
CNCC(=O)N1CCC2(CCC(N(C)c3ncnc4[nH]ccc34)CC2)CC1 [Compound 97, 2-Methylamino-1-{9-[methyl-(7H-pyrrolo[2,3-d]pyrimidin-4-yl)-amino]-3-aza-spiro[5.5]undec-3-yl}-ethanone HCl salt]	0.1 to 1	0.1 to 1	1 to 10
CN(c1ncnc2[nH]ccc12)C1CCC2(CC1)CCN(C(=O)C1CC1)CC2 [Compound 99, Cyclopropyl-{9-[methyl-(7H-pyrrolo[2,3-d]pyrimidin-4-yl)-amino]-3-aza-spiro[5.5]undec-3-yl}-methanone]	0.01 to 0.1	0.1 to 1	1 to 10
CN(c1ncnc2[nH]ccc12)C1CC2(C1)CN(C(=O)c1cc3ccccc3s1)C2 [Compound 20, benzo[b]thiophen-2-yl(6-(methyl(7H-pyrrolo[2,3-d]pyrimidin-4-yl)amino)-2-azaspiro[3.3]heptan-2-yl)methanone]	0.01 to 0.1	1 to 10	1 to 10
CN(c1ncnc2[nH]ccc12)C1CC2(C1)CN(C(=O)Cc1c[nH]c3ccccc13)C2 [Compound 23, 2-(1H-indol-3-yl)-1-(6-(methyl(7H-pyrrolo[2,3-d]pyrimidin-4-yl)amino)-2-azaspiro[3.3]heptan-2-yl)ethanone]	0.1 to 1	1 to 10	1 to 10
CN(c1ncnc2[nH]ccc12)C1CCC2(CC1)CCN(C(=O)c1cc3ccccc3[nH]1)CC2 [Compound 95, (1H-Indol-2-yl)-{9-[methyl-(7H-pyrrolo[2,3-d]pyrimidin-4-yl)-amino]-3-aza-spiro[5.5]undec-3-yl}-methanone]	0.1 to 1	0.1 to 1	0.1 to 1
CN(c1ncnc2[nH]ccc12)C1CC2(C1)CN(C(=O)c1cccc(OC(F)(F)F)c1)C2 [Compound 17, (6-(methyl(7H-pyrrolo[2,3-d]pyrimidin-4-yl)amino)-2-azaspiro[3.3]heptan-2-yl)(3-(trifluoromethoxy)phenyl)methanone]	0.1 to 1	1 to 10	≥ 10
CN(c1ncnc2[nH]ccc12)C1CC2(C1)CN(C(=O)c1ccc(-c3ccn(C)n3)cc1)C2 [Compound 68]	0.1 to 1	1 to 10	1 to 10
Cc1ccsc1C(=O)N1CCC2(CCC(N(C)c3ncnc4[nH]ccc34)CC2)CC1 [Compound 94, {9-[Methyl-(7H-pyrrolo[2,3-d]pyrimidin-4-yl)-amino]-3-aza-spiro[5.5]undec-3-yl}-(3-methyl-thiophen-2-yl)-methanone]	0.1 to 1	0.1 to 1	1 to 10
CN(c1ncnc2[nH]ccc12)C1CCC2(CC1)CCN(S(=O)(=O)CC(F)(F)F)CC2 [Compound 103, Methyl-(7H-pyrrolo[2,3-d]pyrimidin-4-yl)-[3-(2,2,2-trifluoro-ethanesulfonyl)-3-aza-spiro[5.5]undec-9-yl]-amine]	0.01 to 0.1	0.1 to 1	0.1 to 1
CC(=O)N1CCC2(CCC(N(C)c3ncnc4[nH]ccc34)CC2)CC1 [Compound 75, 1-{9-[Methyl-(7H-pyrrolo[2,3-d]pyrimidin-4-yl)-amino]-3-aza-spiro[5.5]undec-3-yl}-ethanone]	0.01 to 0.1	0.01 to 0.1	0.1 to 1

The remaining lines, values ahead:

IC50 [1] [µM]	IC50 [2] [µM]	IC50 [3] [µM]	SMILES
0.01 to 0.1	0.1 to 1	1 to 10	CN(c1ncnc2[nH]ccc12)C1CC2(C1)CN(C(=O)C1(C#N)CC1)C2 [Compound 19, 1-(6-(methyl(7H-pyrrolo[2,3-d]pyrimidin-4-yl)amino)-2-azaspiro[3.3]heptane-2-carbonyl)cyclopropanecarbonitrile]
≤ 0.01	0.1 to 1	1 to 10	C#Cc1ccc(C(=O)N2CC3(CC(N(C)c4ncnc5[nH]ccc45)C3)C2)cc1F [Compound 47, (4-ethynyl-3-fluorophenyl)(6-(methyl(7H-pyrrolo[2,3-d]pyrimidin-4-yl)amino)-2-azaspiro[3.3]heptan-2-yl)methanone]
0.1 to 1	1 to 10	1 to 10	CN(c1ncnc2[nH]ccc12)C1CC2(C1)CN(C(=O)c1cccc(C(F)(F)F)c1)C2 [Compound 13, (6-(methyl(7H-pyrrolo[2,3-d]pyrimidin-4-yl)amino)-2-azasprio[3.3]heptan-2-yl)(3-(trifluoromethyl)phenyl)methanone]
≤ 0.01	0.01 to 0.1	1 to 10	C#Cc1ccc(C(=O)N2CC3(CC(N(C)c4ncnc5[nH]ccc45)C3)C2)c(F)c1 [Compound 41, (4-ethynyl-2-fluorophenyl)(6-(methyl(7H-pyrrolo[2,3-d]pyrimidin-4-yl)amino)-2-azaspiro[3.3]heptan-2-yl)methanone]
0.1 to 1	0.1 to 1	1 to 10	CN(c1ncnc2[nH]ccc12)C1CC2(C1)CN(C(=O)CC#N)C2 [Compound 2, 3-(6-(methyl(7H-pyrrolo[2,3-d]pyrimidin-4-yl)amino)-2-azaspiro[3.3]heptan-2-yl)-3-oxopropanenitrile]
0.1 to 1	0.1 to 1	≥ 10	CCS(=O)(=O)N1CC2(CC(N(C)c3ncnc4[nH]ccc34)C2)C1 [Compound 6, N-(2-(ethylsulfonyl)-2-azaspiro[3.3]heptan-6-yl)-N-methyl-7H-pyrrolo[2,3-d]pyrimidin-4-amine]
0.1 to 1	1 to 10	1 to 10	CCOC(=O)N1CC2(CC(N(C)c3ncnc4[nH]ccc34)C2)C1 [Compound 8, ethyl 6-(methyl(7H-pyrrolo[2,3-d]pyrimidin-4-yl)amino)-2-azaspiro[3.3]heptane-2-carboxylate]
0.01 to 0.1	0.1 to 1	1 to 10	CN(c1ncnc2[nH]ccc12)C1CC2(C1)CN(C(=O)c1ccc(C#N)cc1Cl)C2 [Compound 37, 3-chloro-4-(6-(methyl(7H-pyrrolo[2,3-d]pyrimidin-4-yl)amino)-2-azaspiro[3.3]heptane-2-carbonyl)benzonitrile]
0.1 to 1	1 to 10	1 to 10	CN(c1ncnc2[nH]ccc12)C1CC2(C1)CN(C(=O)CCS(C)(=O)=O)C2 [Compound 16, 1-(6-(methyl(7H-pyrrolo[2,3-d]pyrimidin-4-yl)amino)-2-azaspiro[3.3]heptan-2-yl)-3-(methylsulfonyl)propan-1-one]
≤ 0.01	0.1 to 1	1 to 10	C#Cc1ccc(C(=O)N2CC3(CC(N(C)c4ncnc5[nH]ccc45)C3)C2)c(Cl)c1 [Compound 43, (2-chloro-4-ethynylphenyl)(6-(methyl(7H-pyrrolo[2,3-d]pyrimidin-4-yl)amino)-2-azaspiro[3.3]heptan-2-yl)methanone]
